Measured values reported in the supplement of paper PMC10307832.

Assays:
Assay in all cases: relative viability (nuclei count vs DMSO), 5 days (fraction); higher = more cells survive
A-427 = tested on: A-427
Outline: (§1)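 Cells from lung cancer lines were seeded into 1536-well plates and, one day later, dosed by pin tool. Treatments were either a single drug or a fixed dose of an anchor drug with five library-drug doses (not always all listed) in √10 steps. After 5 days, nuclei were stained in a one-step fixation (final 0.05% Triton X-100, 1% formaldehyde, 1 ug/ml Hoechst) and counted on 4× images, and relative viability is the treated-to-vehicle nuclei ratio, as the median of duplicate plates.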

CAL-12T = tested on: CAL-12T
Outline: as §1

COR-L 105 = tested on: COR-L 105
Outline: as §1

EMC-BAC-2 = tested on: EMC-BAC-2
Outline: as §1

HARA = tested on: HARA
Outline: as §1

HCC-366 = tested on: HCC-366
Outline: as §1

HCC-827 = tested on: HCC-827
Outline: as §1

HOP-62 = tested on: HOP-62
Outline: as §1

LCLC-103H = tested on: LCLC-103H
Outline: as §1

NCI-H1355 = tested on: NCI-H1355
Outline: as §1

NCI-H1395 = tested on: NCI-H1395
Outline: as §1

NCI-H1437 = tested on: NCI-H1437
Outline: as §1

NCI-H1755 = tested on: NCI-H1755
Outline: as §1

NCI-H1792 = tested on: NCI-H1792
Outline: as §1

NCI-H1915 = tested on: NCI-H1915
Outline: as §1

NCI-H1975 = tested on: NCI-H1975
Outline: as §1

NCI-H2009 = tested on: NCI-H2009
Outline: as §1

NCI-H2228 = tested on: NCI-H2228
Outline: as §1

NCI-H23 = tested on: NCI-H23
Outline: as §1

NCI-H460 = tested on: NCI-H460
Outline: as §1

NCI-H727 = tested on: NCI-H727
Outline: as §1

SK-LU-1 = tested on: SK-LU-1
Outline: as §1

SW 1573 = tested on: SW 1573
Outline: as §1

SMILES: NC(=O)Nc1cc(-c2cccc(F)c2)sc1C(=O)N[C@H]1CCCNC1 [AZD7762] + Cc1nc(NC(=O)N2CCC[C@H]2C(N)=O)sc1-c1ccnc(C(C)(C)C(F)(F)F)c1 [Alpelisib] (partner 2 µM)
- relative viability (A-427; first compound 0.01 µM): 1.07
- relative viability (A-427; first compound 0.03162 µM): 1.14
- relative viability (A-427; first compound 0.1 µM): 1.1
- relative viability (A-427; first compound 0.3162 µM): 1.1
- relative viability (A-427; first compound 1 µM): 0.864
- relative viability (CAL-12T; first compound 0.01 µM): 1.3
- relative viability (CAL-12T; first compound 0.03162 µM): 1.18
- relative viability (CAL-12T; first compound 0.1 µM): 1.24
- relative viability (CAL-12T; first compound 0.3162 µM): 0.955
- relative viability (CAL-12T; first compound 1 µM): 0.155
- relative viability (COR-L 105; first compound 0.01 µM): 1.2
- relative viability (COR-L 105; first compound 0.03162 µM): 1.03
- relative viability (COR-L 105; first compound 0.1 µM): 0.92
- relative viability (COR-L 105; first compound 0.3162 µM): 0.847
- relative viability (COR-L 105; first compound 1 µM): 0.461
- relative viability (EMC-BAC-2; first compound 0.01 µM): 0.82
- relative viability (EMC-BAC-2; first compound 0.03162 µM): 0.72
- relative viability (EMC-BAC-2; first compound 0.1 µM): 0.79
- relative viability (EMC-BAC-2; first compound 0.3162 µM): 0.762
- relative viability (EMC-BAC-2; first compound 1 µM): 0.797
- relative viability (HARA; first compound 0.01 µM): 0.889
- relative viability (HARA; first compound 0.03162 µM): 0.887
- relative viability (HARA; first compound 0.1 µM): 0.825
- relative viability (HARA; first compound 0.3162 µM): 0.751
- relative viability (HARA; first compound 1 µM): 0.824
- relative viability (HCC-366; first compound 0.01 µM): 0.45
- relative viability (HCC-366; first compound 0.03162 µM): 0.521
- relative viability (HCC-366; first compound 0.1 µM): 0.229
- relative viability (HCC-366; first compound 0.3162 µM): 0.189
- relative viability (HCC-366; first compound 1 µM): 0.134
- relative viability (HCC-827; first compound 0.01 µM): 1.01
- relative viability (HCC-827; first compound 0.03162 µM): 1.02
- relative viability (HCC-827; first compound 0.1 µM): 1
- relative viability (HCC-827; first compound 0.3162 µM): 0.985
- relative viability (HCC-827; first compound 1 µM): 0.659
- relative viability (HOP-62; first compound 0.01 µM): 0.918
- relative viability (HOP-62; first compound 0.03162 µM): 1.22
- relative viability (HOP-62; first compound 0.1 µM): 0.836
- relative viability (HOP-62; first compound 0.3162 µM): 1.04
- relative viability (HOP-62; first compound 1 µM): 1.36
- relative viability (LCLC-103H; first compound 0.01 µM): 1.01
- relative viability (LCLC-103H; first compound 0.03162 µM): 0.962
- relative viability (LCLC-103H; first compound 0.1 µM): 0.889
- relative viability (LCLC-103H; first compound 0.3162 µM): 0.977
- relative viability (LCLC-103H; first compound 1 µM): 0.9
- relative viability (NCI-H1355; first compound 0.01 µM): 0.894
- relative viability (NCI-H1355; first compound 0.03162 µM): 0.886
- relative viability (NCI-H1355; first compound 0.1 µM): 0.825
- relative viability (NCI-H1355; first compound 0.3162 µM): 0.861
- relative viability (NCI-H1355; first compound 1 µM): 0.852
- relative viability (NCI-H1395; first compound 0.01 µM): 1.2
- relative viability (NCI-H1395; first compound 0.03162 µM): 1.1
- relative viability (NCI-H1395; first compound 0.1 µM): 1.16
- relative viability (NCI-H1395; first compound 0.3162 µM): 0.649
- relative viability (NCI-H1395; first compound 1 µM): 0.436
- relative viability (NCI-H1437; first compound 0.01 µM): 0.995
- relative viability (NCI-H1437; first compound 0.03162 µM): 0.962
- relative viability (NCI-H1437; first compound 0.1 µM): 1
- relative viability (NCI-H1437; first compound 0.3162 µM): 1
- relative viability (NCI-H1437; first compound 1 µM): 1
- relative viability (NCI-H1755; first compound 0.01 µM): 0.957
- relative viability (NCI-H1755; first compound 0.03162 µM): 0.924
- relative viability (NCI-H1755; first compound 0.1 µM): 0.999
- relative viability (NCI-H1755; first compound 0.3162 µM): 0.907
- relative viability (NCI-H1755; first compound 1 µM): 0.547
- relative viability (NCI-H1792; first compound 0.01 µM): 0.826
- relative viability (NCI-H1792; first compound 0.03162 µM): 0.781
- relative viability (NCI-H1792; first compound 0.1 µM): 0.727
- relative viability (NCI-H1792; first compound 0.3162 µM): 0.751
- relative viability (NCI-H1792; first compound 1 µM): 0.9
- relative viability (NCI-H1915; first compound 0.01 µM): 1.06
- relative viability (NCI-H1915; first compound 0.03162 µM): 1.12
- relative viability (NCI-H1915; first compound 0.1 µM): 1.09
- relative viability (NCI-H1915; first compound 0.3162 µM): 1.09
- relative viability (NCI-H1915; first compound 1 µM): 0.997
- relative viability (NCI-H1975; first compound 0.01 µM): 0.678
- relative viability (NCI-H1975; first compound 0.03162 µM): 0.585
- relative viability (NCI-H1975; first compound 0.1 µM): 0.579
- relative viability (NCI-H1975; first compound 0.3162 µM): 0.436
- relative viability (NCI-H1975; first compound 1 µM): 0.322
- relative viability (NCI-H2009; first compound 0.01 µM): 1.3
- relative viability (NCI-H2009; first compound 0.03162 µM): 1.15
- relative viability (NCI-H2009; first compound 0.1 µM): 1.27
- relative viability (NCI-H2009; first compound 0.3162 µM): 1.08
- relative viability (NCI-H2009; first compound 1 µM): 1.11
- relative viability (NCI-H2228; first compound 0.01 µM): 0.886
- relative viability (NCI-H2228; first compound 0.03162 µM): 0.666
- relative viability (NCI-H2228; first compound 0.1 µM): 0.8
- relative viability (NCI-H2228; first compound 0.3162 µM): 0.407
- relative viability (NCI-H2228; first compound 1 µM): 0.19
- relative viability (NCI-H23; first compound 0.01 µM): 0.859
- relative viability (NCI-H23; first compound 0.03162 µM): 0.721
- relative viability (NCI-H23; first compound 0.1 µM): 0.745
- relative viability (NCI-H23; first compound 0.3162 µM): 0.562
- relative viability (NCI-H23; first compound 1 µM): 0.418
- relative viability (NCI-H460; first compound 0.01 µM): 0.604
- relative viability (NCI-H460; first compound 0.03162 µM): 0.498
- relative viability (NCI-H460; first compound 0.1 µM): 0.54
- relative viability (NCI-H460; first compound 0.3162 µM): 0.293
- relative viability (NCI-H460; first compound 1 µM): 0.0196
- relative viability (NCI-H727; first compound 0.01 µM): 0.583
- relative viability (NCI-H727; first compound 0.03162 µM): 0.561
- relative viability (NCI-H727; first compound 0.1 µM): 0.471
- relative viability (NCI-H727; first compound 0.3162 µM): 0.466
- relative viability (NCI-H727; first compound 1 µM): 0.218
- relative viability (SK-LU-1; first compound 0.01 µM): 1.14
- relative viability (SK-LU-1; first compound 0.03162 µM): 0.72
- relative viability (SK-LU-1; first compound 0.1 µM): 0.329
- relative viability (SK-LU-1; first compound 0.3162 µM): 0.207
- relative viability (SK-LU-1; first compound 1 µM): 0.236
- relative viability (SW 1573; first compound 0.01 µM): 0.885
- relative viability (SW 1573; first compound 0.03162 µM): 0.807
- relative viability (SW 1573; first compound 0.1 µM): 0.926
- relative viability (SW 1573; first compound 0.3162 µM): 1.08
- relative viability (SW 1573; first compound 1 µM): 0.647
